Experimental findings from ChEMBL document CHEMBL1150026, “Synthesis of 2,3-dideoxy-2,3-didehydronucleoside analogues as potential anti HIV agents” (Bioorg Med Chem Lett, 1992) are described below.

Activity calls are given as the source filed them. The rule behind the calls is not given here.

The experiment deals with C8166. Nature of the experiment: Compound was tested for antiviral activity against HIV C 8166 cells at a concentration of 5-50 uM; NS - No significant activity. It counts as functional, cell-based. Particulars: Homo sapiens.
For the compound `COC(=O)C(C(=O)OC)=C1NC(=O)N(C2C=CC(CO)O2)C=C1C` (stereo not drawn), the outcome was inactive.
Regarding `CCSc1nc(=O)n(C2C=CC(CO)O2)cc1C` (stereo not drawn), the outcome was inactive.
On to `COc1nc(=O)n(C2C=CC(CO)O2)cc1C` (stereo not drawn), for which the outcome was inactive.
